Measured values: patent US20160031868A1, “BENZIMIDAZOLONE DERIVATIVES AS BROMODOMAIN INHIBITORS” (GILEAD SCIENCES, INC., priority 2013, published 2016)

Experiments:
[1] = target: T1, BRD4-1 (Homo sapiens, UniProt O60885); experiment: Biochemical ALPHA assay: binding of BRD4_1 to acetylated histone H4 peptide; settings: 200 nM H4 peptide, 15 nM BRD4_1, 60 min at 25 °C; geometric mean of min. four determinations
T1 construct: made in house; host or cells: Escherichia coli
Protocol: Binding of the bromodomain BRD4_I to an acetylated histone H4 peptide was measured using a bead based Amplified Luminescent Proximity Homogeneous Assay (ALPHA). The synthetic peptide containing amino acids 1-18 of histone H4 was acetylated at lysine 5, 8, 12, 16 and conjugated to biotin ([…]-GSGSK-biotin) was purchased from Millipore. BRD4_I was expressed and purified from Escherichia coli as an N-terminal Hiss-tagged protein. Nickel-Chelate ALPHA acceptor beads (Perkin Elmer) were used to specifically bind BRD4—1 and ALPHA streptavidin donor beads (Perkin Elmer) were used because they specifically recognized the biotinylated H4 peptide. […] Assays were performed in 50 mM Hepes (pH 7.5), 150 mM NaCl, 0.1 mg/ml BSA, 0.01% (v/v) Brij, 0.5% (v/v) DMSO, 200 nM H4 peptide and 15 nM of BRD4—1 protein. After an assay reaction time of 60 minutes at 25° C., binding was measured with 20 µg/ml streptavidin donor beads and 20 μg/ml nickel-chelate acceptor beads. ALPHA signal was detected on an Envision plate reader ([…]; Em: 570 nm; Ex time: 180 ms). Data were normalized based on a positive (2 μM I-BET) and negative (DMSO) controls and IC50 values were calculated from the fit of the dose-response curves to a four-parameter equation. All IC50 values represent geometric mean values of a minimum of four determinations. These assays generally produced results within 3-fold of the reported mean.

[2] = system: MT-4 cells; experiment: MT-4 proliferation assay in 384-well format (Cell Titer Glo); assay type: cell-based, human; settings: Table 1, 5 days, 50% decrease in luminescence signal, read-out: CC50 MT4 384
Protocol: (§1) Compounds were tested in a standardized high-throughput 384-well assay format. Each compound was serially diluted 3-fold in 100% DMSO in polypropylene 384-well plates using a Biomek FX Workstation, and 0.4 μL compound added to an assay plate containing 40 μL RPMI media. Compounds were arranged in a horizontal pattern, with 10 concentrations per compound, and 8 compounds added per plate. Due to low DMSO tolerability, the final DMSO concentration never exceeded 0.5% (v/v). Each assay plate contained 10 μM Puromycin and 0.5% DMSO in RPMI-1640 as positive and negative controls respectively. MT-4 cells (HTLV-1 transformed, human T lymphoblastoid cells, NIH Aids Reagent program) were added in volumes of 35 μL per well and 2,000 cells per well using a Biotek uFlow Workstation (Biotek, Winooski, Vt.), and the plates subsequently incubated for 5 days at 37° C. in an incubator set at 5% CO2 and 90% humidity.
(§2) After 5 days, 22 μL Cell Titer Glo (Promega) was added to the assay plates with a Biotek uFlow Workstation. Plates were subsequently placed on a Perkin Elmer Envision Plate Reader for 5 minutes before the luminescence signal was read. CC50 values were calculated from the compound concentration that caused a 50% decrease in luminescence signal, a measure of toxicity, and calculated by non-linear regression using Pipeline Pilot software (Accelrys, San Diego, Calif.).

[3] = target: T2, BRD4-2 (Homo sapiens, UniProt O60885); experiment: Biochemical HTRF (TR-FRET) assay: BRD4-2 binding to acetylated histone H4 peptide; settings: 200 nM H4 peptide, 120 nM BRD4-2, 60 min at 25 °C; geometric mean; read-out: IC50 HTBS BRD4-2 HTRF
T2 construct: made in house; host or cells: Escherichia coli
Protocol: (§3) Binding of the two tandem bromodomains, BRD4 I and BRD4—2, to an acetylated histone H4 peptide were measured using a homogeneous time resolved fluorescence resonance energy transfer (TR-FRET) assay. The synthetic peptide containing amino acids 1-18 of histone H4 was acetylated at lysine 5, 8, 12, 16 and conjugated to biotin ([…]-GSGSK-biotin) was purchased from Millipore. BRD4_I and BRD4—2 were expressed and purified from Escherichia coli as N-terminal His6-tagged proteins. An XL665 labeled anti-His antibody (Cisbio) was used to specifically bind BRD4 and a cryptate labeled streptavidin protein was used because it specifically recognized the biotinylated H4 peptide. […] Assays were performed in 50 mM Hepes (pH 7.5), 150 mM NaCl, 0.1 mg/ml BSA, 0.01% (v/v) Brij, 0.5% (v/v) DMSO and 200 nM H4 peptide at the following concentrations for each BRD4 isoform: 60 nM BRD4—1 and 120 nM BRD4—2. After an assay reaction time of 60 minutes at 25° C., binding was measured with 2 nM cryptate labeled streptavidin and 10 nM anti-His-XL665 antibody. TR-FRET signal was detected on an Envision plate reader (Ex: 320 nm; Em: 615/665 nm; 100 μs delay and 200 μs read window). Data were normalized based on a positive (2 μM I-BET) and negative (DMSO) controls and IC50 values were calculated from the fit of the dose-response curves to a four-parameter equation. All IC50 values represent geometric mean values of a minimum of four determinations. These assays generally produced results within 3-fold of the reported mean.

[4] = target: T1, BRD4-1; experiment: Biochemical HTRF (TR-FRET) assay: BRD4-1 binding to acetylated histone H4 peptide; settings: 200 nM H4 peptide, 60 nM BRD4-1, 60 min at 25 °C; geometric mean; read-out: IC50 HTBS BRD4-1 HTRF
Protocol: as §3

[5] = MT-4 proliferation assay in 384-well format (Cell Titer Glo); assay type: cell-based, human; settings: human, MT-4 cells, Table 1, 50% decrease in luminescence signal, read-out: CC50 MT4 384
Protocol: as §1, §2

IC50 [1] [nM]	IC50 [3] [nM]	IC50 [4] [nM]	SMILES	CC50 [2] [nM]	CC50 at 5 days [5] [nM]
45.2			Cc1ccc2ncccc2c1-c1cc(-c2c(C)noc2C)cc2[nH]c(=O)[nH]c12 (single isomer, unassigned) [Example 13]	51.6	
14			Cc1ccc2ncccc2c1-c1cc(-c2c(C)noc2C)cc2[nH]c(=O)[nH]c12 (single isomer, unassigned) [Example 14]	9.54	
46.8	108	132	Cc1noc(C)c1-c1cc(-c2cccc3c2CCC(=O)N3C)c2[nH]c(=O)[nH]c2c1 [Example 6, 5-(6-(3,5-dimethylisoxazol-4-yl)-2-oxo-2,3-dihydro-1H-benzo[d]imidazol-4-yl)-1-methyl-3,4-dihydroquinolin-2(1H)-one]		53.9
241	168	511	Cc1cnn(C)c1-c1cc(-c2c(C)noc2C)cc2[nH]c(=O)n(C)c12 [Example 8, 7-(1,4-dimethyl-1H-pyrazol-5-yl)-5-(3,5-dimethylisoxazol-4-yl)-1-methyl-1H-benzo[d]imidazol-2(3H)-one]		117
270	227	497	Cc1noc(C)c1-c1cc(-c2c(C)noc2C)c2c(c1)[nH]c(=O)n2C [Example 9]		204
196	396	313	Cc1noc(C)c1-c1cc(-c2c(C)noc2C)c2oc(=O)[nH]c2c1 [Example 10, 5,7-bis(3,5-dimethylisoxazol-4-yl)benzo[d]oxazol-2(3H)-one]		1030
222	174	438	Cc1ccc2ncccc2c1-c1cc(-c2c(C)noc2C)cc2[nH]c(=O)oc12 [Example 11, 5-(3,5-dimethylisoxazol-4-yl)-7-(6-methylquinolin-5-yl)benzo[d]oxazol-2(3H)-one]		421
233	314	316	Cc1noc(C)c1-c1cc(-c2cccnc2-c2ccccc2)c2oc(=O)[nH]c2c1 [Example 12, 5-(3,5-dimethylisoxazol-4-yl)-7-(2-phenylpyridin-3-yl)benzo[d]oxazol-2(3H)-one]		761

SMILES	IC50 [1] [nM]	IC50 [3] [nM]	IC50 [4] [nM]	CC50 [2] [nM]	CC50 at 5 days [5] [nM]
Cc1ccc2ncccc2c1-c1cc(-c2c(C)noc2C)cc2[nH]c(=O)n(C)c12 [Example 7, 5-(3,5-dimethylisoxazol-4-yl)-1-methyl-7-(6-methylquinolin-5-yl)-1H-benzo[d]imidazol-2(3H)-one]	37.3	101	121		17.5
